Results published in article PMC6572184, “New γ-Halo-δ-lactones and δ-Hydroxy-γ-lactones with Strong Cytotoxic Activity” (Molecules, 2019).
Read-outs that look alike come from different tables or passages of the source.

Columns and labels:
[1] = system: Escherichia coli ATCC 8739; assay: Bactericidal activity, CFU counting method; assay type: cell-based; details: E. coli ATCC 8739; for Number of CFU/mL (× 10^7): 18 h at 37 °C, Control 9.47, Control with DMSO 9.30; for less CFU/mL (reduction of the number of CFU/mL): versus control
Protocol: (§1) The bacterial cultures: Escherichia coli ATCC 8739 and Staphylococcus aureus ATCC 65389 were grown on Luria–Bertani Agar for 18 h at 37 ^∘ C. The strain suspension was prepared in 0.85% saline, with an optical density equivalent to a 0.5 McFarland standard. Next, the following mixtures were prepared: 180 μ L of sterile enriched broth (BTL), 10 μ L of the bacterial suspension and 10 μ L of the tested compound (range 0.1–50 μ g/mL) solubilized in DMSO. As a negative control, only DMSO was added. As a sterility control, 180 μ L of BTL and 20 μ L saline were used. The microtiter plate was incubated at 37 ^∘ C for 18 h. The colony forming unit (CFU) method was used to evaluate the microbial population. The experiment was repeated three times. Gentamicin was used as the reference antibiotic.

[2] = system: Staphylococcus aureus ATCC 65389; assay: Bactericidal activity, CFU counting method; assay type: cell-based; details: S. aureus ATCC 65389; for Number of CFU/mL (× 10^7): 18 h at 37 °C, Control 21.36, Control with DMSO 20.85
Protocol: as §1

[3] = system: AGS cell lines (human gastric adenocarcinoma); assay: MTT reduction cytotoxicity assay; assay type: cell-based; details: for mean percentage of viable cells ± SD: 24 h
Protocol: (§2) Cell cultures: The L929 mouse fibroblasts and human gastric adenocarcinoma cell line AGS were used for in vitro cytotoxicity assays. The cells were maintained under standard conditions (37 ^∘ C, 5% CO 2 ) in 25 cm^2 tissue culture flasks in RPMI-1640 medium supplemented with 10% fetal bovine serum (FBS) and antibiotics: 100 U/mL penicillin and 100 μ g/mL streptomycin. The cell suspension containing 10 ^8 cells in 1 mL, was obtained by treatment of confluent monolayers with 0.25% trypsin solution, washed and subcultured. Cell cultures were supplemented with medium to maintain them in log phase growth. The viability of the cells was assessed by exclusion of trypan blue dye.
(§3) Measurements of cellular metabolic activity and global growth inhibition: L929 cells were seeded into 96-well plates (2 × 10 ^5 cells/well) for 24 h, at 37 ^∘ C, 5% CO2 . Tested compounds 5a–c, 6a–c, 7a–c, 8a–c, 9b,c, 10b,c, 12a and 13a were diluted serially in RPMI-1640 medium in concentrations of 50, 20, 10, 5, 0.5 and 0.1 μ g/mL, added to the cells (100 μ L/well), and incubated under standard conditions for 24 h. The potential harmful effect of lactones on L929 and AGS cells was assessed by the ability of the cells to reduce 3-(4,5-dimethylthiazol-2-yl)-2,5-diphenyltetrazolium bromide (MTT) to formazan. The solution of MTT (5 mg/mL in PBS), was added to each well and the plates were incubated for 4h at 37 ^∘ C. Formazan crystals were dissolved with acidic isopropanol (0.1 M HCl in absolute isopropanol) and the plates were read in a plate reader (Victor 2) at 570 nm. The percentage of MTT reduction was calculated by comparing the absorbance of treated cells to that of untreated control cells. Results are expressed as the mean percentage of viable cells ± standard deviation (SD) of four independent experiments. Statistical significance was accepted at a p-value < 0.05.

[4] = system: L929 cell lines (mouse fibroblasts); assay: MTT reduction cytotoxicity assay; assay type: cell-based; details: 24 h
Protocol: as §2, §3

[5] = Observation of purified γ-iodo-δ-lactone isomers (decomposition, translactonization); assay type: physicochemical; details: purified trans,trans and cis,trans γ-iodo-δ-lactones; residue an equimolar mixture of trans and cis hydroxylactones
Protocol: Iodolactonization of 4a–c acids was carried out with I2/KI and NaHCO3 in a water/diethyl ether mixture. […] The yield of reactions was in the range of 69–85%. The reaction conditions prevented the direct synthesis of these compounds because the reaction was carried out in an alkaline solution, whereas hydroxylactonization requires an acidic environment. […] and predominantly formed in this reaction. The excess of trans-isomer is usually observed in the synthesis of γ -lactones. However, the reaction initially gave δ -iodo- γ -lactones, which, through a translactonization reaction, were transformed into the final products–hydroxylactones 12a and 13a. This was confirmed by observations of purified isomers trans,trans and cis,trans γ -iodo- δ -lactones 9b and 10b, and 9c and 10c. […] The carbocation was stabilized by the electron lone pairs of the oxygen atom present in the water molecule. The preparation of hydroxylactones from iodolactones has been described thus far only for biotransformation experiments. The synthesis described here allows obtaining these compounds without microorganisms.

[6] = MTT reduction cytotoxicity assay; assay type: cell-based, human; details: human, AGS cells (human gastric adenocarcinoma), 24 h, read-out: mean percentage of viable cells ± SD
Protocol: as §2, §3

[7] = MTT reduction cytotoxicity assay; assay type: cell-based, mouse; details: mouse, L929 cells (mouse fibroblasts), read-out: mean percentage of viable cells ± SD
Protocol: as §2, §3

CC1CC(=O)OC(c2ccc(F)cc2)C1I (stereo not drawn) [9c, Trans,trans-6-(4-fluorophenyl)-tetrahydro-5-iodo-4-methylpyran-2-one]
Number of CFU/mL (× 10^7) [1]: 2.43 × 10^7 CFU/mL
less CFU/mL (reduction of the number of CFU/mL) [1]: 70–78%
Number of CFU/mL (× 10^7) [2]: 9.76 × 10^7 CFU/mL
IC50 [3]: 1400 nM
mean percentage of viable cells ± SD ([3]; 0.1 μg/mL): 51 ± 0.10%
mean percentage of viable cells ± SD ([3]; 0.5 μg/mL): 43 ± 0.15%
mean percentage of viable cells ± SD ([3]; 5 μg/mL): 35 ± 0.10%
mean percentage of viable cells ± SD ([3]; 10 μg/mL): 23 ± 0.02%
mean percentage of viable cells ± SD ([3]; 20 μg/mL): 18 ± 0.06%
mean percentage of viable cells ± SD ([3]; 50 μg/mL): 15 ± 0.03%
mean percentage of viable cells ± SD ([4]; 0.1 μg/mL): 15 ± 0.03%
mean percentage of viable cells ± SD ([4]; 0.5 μg/mL): 12 ± 0.08%
mean percentage of viable cells ± SD ([4]; 5 μg/mL): 9 ± 0.06%
mean percentage of viable cells ± SD ([4]; 10 μg/mL): 6 ± 0.03%
mean percentage of viable cells ± SD ([4]; 20 μg/mL): 3 ± 0.09%
mean percentage of viable cells ± SD ([4]; 50 μg/mL): 1 ± 0.05%
stability of purified isomer (in words) [5]: rapid decomposition with release of iodine

CC1CC(=O)OC(c2ccccc2)C1I (mixture of isomers) [10b, Cis,trans-tetrahydro-5-iodo-4-methyl-6-phenylpyran-2-one]
Number of CFU/mL (× 10^7) [1]: 7.65 × 10^7 CFU/mL
Number of CFU/mL (× 10^7) [2]: 5.92 × 10^7 CFU/mL
IC50 [3]: 1800 nM
mean percentage of viable cells ± SD ([3]; 0.1 μg/mL): 58 ± 0.07%
mean percentage of viable cells ± SD ([3]; 0.5 μg/mL): 43 ± 0.02%
mean percentage of viable cells ± SD ([3]; 5 μg/mL): 37 ± 0.03%
mean percentage of viable cells ± SD ([3]; 10 μg/mL): 16 ± 0.09%
mean percentage of viable cells ± SD ([3]; 20 μg/mL): 14 ± 0.08%
mean percentage of viable cells ± SD ([3]; 50 μg/mL): 10 ± 0.06%
mean percentage of viable cells ± SD ([4]; 0.1 μg/mL): 25 ± 0.08%
mean percentage of viable cells ± SD ([4]; 0.5 μg/mL): 20 ± 0.03%
mean percentage of viable cells ± SD ([4]; 5 μg/mL): 15 ± 0.08%
mean percentage of viable cells ± SD ([4]; 10 μg/mL): 7 ± 0.15%
mean percentage of viable cells ± SD ([4]; 20 μg/mL): 5 ± 0.06%
mean percentage of viable cells ± SD ([4]; 50 μg/mL): 1 ± 0.02%
stability of purified isomer (in words) [5]: rapid decomposition with release of iodine

CC1CC(=O)OC(c2ccc(F)cc2)C1I (mixture of isomers) [10c, Cis,trans-6-(4-fluorophenyl)-tetrahydro-5-iodo-4-methylpyran-2-one]
Number of CFU/mL (× 10^7) [1]: 2.87 × 10^7 CFU/mL
less CFU/mL (reduction of the number of CFU/mL) [1]: 70–78%
Number of CFU/mL (× 10^7) [2]: 6.30 × 10^7 CFU/mL
IC50 [3]: 1700 nM
mean percentage of viable cells ± SD ([3]; 0.1 μg/mL): 38 ± 0.06%
mean percentage of viable cells ± SD ([3]; 0.5 μg/mL): 23 ± 0.15%
mean percentage of viable cells ± SD ([3]; 5 μg/mL): 20 ± 0.02%
mean percentage of viable cells ± SD ([3]; 10 μg/mL): 13 ± 0.03%
mean percentage of viable cells ± SD ([3]; 20 μg/mL): 10 ± 0.07%
mean percentage of viable cells ± SD ([3]; 50 μg/mL): 8 ± 0.03%
mean percentage of viable cells ± SD ([4]; 0.1 μg/mL): 22 ± 0.05%
mean percentage of viable cells ± SD ([4]; 0.5 μg/mL): 18 ± 0.03%
mean percentage of viable cells ± SD ([4]; 5 μg/mL): 12 ± 0.07%
mean percentage of viable cells ± SD ([4]; 10 μg/mL): 6 ± 0.09%
mean percentage of viable cells ± SD ([4]; 20 μg/mL): 2 ± 0.15%
mean percentage of viable cells ± SD ([4]; 50 μg/mL): 2 ± 0.05%
stability of purified isomer (in words) [5]: rapid decomposition with release of iodine

CC1CC(=O)OC(c2ccccc2)C1Cl (stereo not drawn) [5b, Trans,trans-5-chloro-tetrahydro-4-methyl-6-phenylpyran-2-one]
Number of CFU/mL (× 10^7) [1]: 4.06 × 10^7 CFU/mL
Number of CFU/mL (× 10^7) [2]: 7.63 × 10^7 CFU/mL
viability at 24 h, 0.1 μg/mL [6]: 35 ± 0.06%
viability at 24 h, 0.5 μg/mL [6]: 20 ± 0.09%
viability at 24 h, 5 μg/mL [6]: 16 ± 0.06%
viability at 24 h, 10 μg/mL [6]: 14 ± 0.12%
viability at 24 h, 20 μg/mL [6]: 11 ± 0.07%
viability at 24 h, 50 μg/mL [6]: 8 ± 0.09%
IC50 ([3]; Homo sapiens): 2300 nM
viability at 24 h, 0.1 μg/mL [7]: 20 ± 0.08%
viability at 24 h, 0.5 μg/mL [7]: 18 ± 0.15%
viability at 24 h, 20 μg/mL [7]: 4 ± 0.02%
viability at 24 h, 50 μg/mL [7]: 1 ± 0.03%
mean percentage of viable cells ± SD ([4]; 5 μg/mL): 12 ± 0.05%
mean percentage of viable cells ± SD ([4]; 10 μg/mL): 7 ± 0.06%
melting point: 105 to 106.5 °C

C[C@@H]1CC(=O)O[C@H](c2cccc3ccccc23)[C@H]1Cl (relative stereo) [5a, Trans,trans-5-chloro-tetrahydro-4-methyl-6-(naphthalen-1-yl)pyran-2-one]
Number of CFU/mL (× 10^7) [1]: 6.41 × 10^7 CFU/mL
Number of CFU/mL (× 10^7) [2]: 2.74 × 10^7 CFU/mL
less CFU/mL (reduction of the number of CFU/mL) ([2]; versus control): 87%
viability at 24 h, 0.1 μg/mL [6]: 54 ± 0.07%
viability at 24 h, 0.5 μg/mL [6]: 48 ± 0.05%
viability at 24 h, 5 μg/mL [6]: 43 ± 0.09%
viability at 24 h, 10 μg/mL [6]: 27 ± 0.1%
viability at 24 h, 20 μg/mL [6]: 18 ± 0.08%
viability at 24 h, 50 μg/mL [6]: 15 ± 0.01%
IC50 ([3]; Homo sapiens): 1900 nM
viability at 24 h, 0.1 μg/mL [7]: 17 ± 0.09%
viability at 24 h, 0.5 μg/mL [7]: 15 ± 0.02%
viability at 24 h, 5 μg/mL ([7]; 5 μg/mL): 10 ± 0.03%
viability at 24 h, 10 μg/mL ([7]; 10 μg/mL): 8 ± 0.07%
viability at 24 h, 20 μg/mL [7]: 5 ± 0.06%
viability at 24 h, 50 μg/mL [7]: 1 ± 0.01%
melting point: 157 to 158 °C
